{
  "source": "ChEMBL document CHEMBL1140559",
  "about": "“Synthesis and cytotoxic activity of various 5-[alkoxy-(4-nitro-phenyl)-methyl]-uracils in their racemic form” (Bioorg Med Chem Lett, 2007)",
  "type_in_all_cases": "functional, cell-based",
  "conditions_in_all_cases": "Homo sapiens",
  "key": {"[1]": {"tested_on": "CCRF-CEM", "test": "Cytotoxicity against lung resistance protein positive CEM cells"}, "[2]": {"tested_on": "K562-Tax", "test": "Cytotoxicity against p-glycoprotein positive K562-Tax cells"}, "[3]": {"tested_on": "CCRF-CEM", "test": "Increase in RNA synthesis in CEM cells at IC50"}, "[4]": {"tested_on": "CCRF-CEM", "test": "Inhibition of DNA synthesis in CEM cells at 5 times IC50"}, "[5]": {"tested_on": "CCRF-CEM", "test": "Induction of apoptosis in CEM cells at IC50 after 24 hrs […]"}, "[6]": {"tested_on": "CCRF-CEM", "test": "Inhibition of DNA synthesis in CEM cells at IC50"}, "[7]": {"tested_on": "CCRF-CEM", "test": "Inhibition of RNA synthesis in CEM cells at IC50"}},
  "note": "The source made the active and inactive calls. The rule behind the calls is not given here.",
  "data": [
    {"smiles": "CCCCCCCCCCOC(c1ccc([N+](=O)[O-])cc1)c1c[nH]c(=O)[nH]c1=O", "note": "(stereo not given)", "values": [
      {"measurement": "Activity", "setting": "[1]", "value": "Active"},
      {"measurement": "Activity", "setting": "[2]", "value": "Active"}
    ]},
    {"smiles": "CCCCCCCOC(c1ccc([N+](=O)[O-])cc1)c1c[nH]c(=O)[nH]c1=O", "note": "(stereo not given)", "values": [
      {"measurement": "Activity", "setting": "[1]", "value": "Active"},
      {"measurement": "Activity", "setting": "[3]", "value": "Active"},
      {"measurement": "Activity", "setting": "[4]", "value": "Active"},
      {"measurement": "Activity", "setting": "[2]", "value": "Active"}
    ]},
    {"smiles": "CCCCCCOC(c1ccc([N+](=O)[O-])cc1)c1c[nH]c(=O)[nH]c1=O", "note": "(stereo not given)", "values": [
      {"measurement": "Activity", "setting": "[5]", "value": "Active"},
      {"measurement": "Activity", "setting": "[6]", "value": "Active"},
      {"measurement": "Activity", "setting": "[7]", "value": "Active"},
      {"measurement": "Activity", "setting": "[4]", "value": "Active"}
    ]},
    {"smiles": "CCCCCCCCCCCOC(c1ccc([N+](=O)[O-])cc1)c1c[nH]c(=O)[nH]c1=O", "note": "(stereo not given)", "values": [
      {"measurement": "Activity", "setting": "[1]", "value": "Active"},
      {"measurement": "Activity", "setting": "[2]", "value": "Active"}
    ]},
    {"smiles": "CCCCCCCCCCCCOC(c1ccc([N+](=O)[O-])cc1)c1c[nH]c(=O)[nH]c1=O", "note": "(stereo not given)", "values": [
      {"measurement": "Activity", "setting": "[1]", "value": "Active"},
      {"measurement": "Activity", "setting": "[2]", "value": "Active"}
    ]},
    {"smiles": "CCCCCCCCCOC(c1ccc([N+](=O)[O-])cc1)c1c[nH]c(=O)[nH]c1=O", "note": "(stereo not given)", "values": [
      {"measurement": "Activity", "setting": "[1]", "value": "Active"},
      {"measurement": "Activity", "setting": "[2]", "value": "Active"}
    ]},
    {"smiles": "CCCCCCCCOC(c1ccc([N+](=O)[O-])cc1)c1c[nH]c(=O)[nH]c1=O", "note": "(stereo not given)", "values": [
      {"measurement": "Activity", "setting": "[1]", "value": "Active"},
      {"measurement": "Activity", "setting": "[3]", "value": "Active"},
      {"measurement": "Activity", "setting": "[4]", "value": "Active"},
      {"measurement": "Activity", "setting": "[2]", "value": "Active"}
    ]}
  ]
}
